Tests used:
Type in all cases: in vivo
[1] = Bitterness reduction of a bitter substance solution (expert sensory panel), naringin; conditions: 100 ppm Naringin; for Bitter-Eindruck (1-10) mit Testsubstanz: scale 1 [nicht bitter] to 10 [extrem bitter]
Excerpt: (§1) Um die Reduzierung (d.h. die Maskierung oder Verminderung) des Bitter-Eindrucks in einer Probe zu quantifizieren, wurde die Bitterkeit einer Lösung enthaltend 500 ppm Coffein oder 300 ppm Theobromin oder 100 ppm Naringin von einer Expertengruppe jeweils mit einer Probe verglichen, die 500 ppm Coffein oder 300 ppm Theobromin oder 100 ppm Naringin und zusätzlich die jeweils angegebene Menge einer (hinsichtlich der Fähigkeit zur Bitter-Reduzierung) zu beurteilenden Substanz enthielt (Einstufung: 1 [nicht bitter] bis 10 [extrem bitter]). Für die Auswertung, d.h. die Berechnung der Reduktion (in %) des Bittereindrucks wurden jeweils die Durchschnittswerte der Einschätzungen der Expertengruppe verwendet. Die Ergebnisse sind in Tabelle 1 zusammengefasst: Tabelle 1 Bitter-reduzierung einer Bitterstofflösung

[2] = Bitterness reduction of a bitter substance solution (expert sensory panel), caffeine; conditions: 500 ppm Coffein; for Bitter-Eindruck (1-10) mit Testsubstanz: scale 1 [nicht bitter] to 10 [extrem bitter]
Excerpt: as §1

[3] = Bitterness reduction of a bitter substance solution (expert sensory panel), theobromine; conditions: 25 ppm test substance, 300 ppm Theobromin; for Bitter-Eindruck (1-10) mit Testsubstanz: scale 1 [nicht bitter] to 10 [extrem bitter]
Excerpt: as §1

SMILES | % Reduktion des Bitter-Eindrucks (Signifikanz) ([1]; 25 ppm test substance, p < 0,0001) | Bitter-Eindruck (1-10) mit Testsubstanz ([1]; 25 ppm test substance, without test substance 6,6 ± 2,0) | % Reduktion des Bitter-Eindrucks (Signifikanz) ([2]; 10 ppm test substance, p < 0,0007) | Bitter-Eindruck (1-10) mit Testsubstanz ([2]; 10 ppm test substance, without test substance 3,8 ± 1,3) | Bitter-Eindruck (1-10) mit Testsubstanz ([3]; without test substance 3,6 ± 2,0) | % Reduktion des Bitter-Eindrucks (Signifikanz) ([3]; without test substance 3,6 ± 2,0, p < 0,25) | % Reduktion des Bitter-Eindrucks (Signifikanz) ([1]; 50 ppm test substance, p < 0,02) | Bitter-Eindruck (1-10) mit Testsubstanz ([1]; 50 ppm test substance, without test substance 5,0 ± 2,0) | % Reduktion des Bitter-Eindrucks (Signifikanz) ([2]; 50 ppm test substance, p < 0,35) | Bitter-Eindruck (1-10) mit Testsubstanz ([2]; 50 ppm test substance, without test substance 3,5 ± 1,4) | Bitter-Eindruck (1-10) mit Testsubstanz ([3]; without test substance 4,2 ± 2,2)
O=C1C[C@@H](c2ccncc2)c2c(O)cc(O)cc2O1 (racemic) [(1) + (2), (4S)-5,7-dihydroxy-4-(4-pyridyl)chroman-2-on (1) und (4R)-5,7-dihydroxy-4-(4-pyridyl)chroman-2-on (2)] | 52,1 % (p < 0,0001) | 3,2 + 1,5 | 37,0 % (p < 0,0007) | 2,4 + 1,0 | 2,9 ± 1,4 | 19,4 % (p < 0,25) |  |  |  |  | 
O=C1C[C@@H](c2cccnc2)c2c(O)cc(O)cc2O1 (racemic) [(3) + (4), (4S)-5,7-dihydroxy-4-(3-pyridyl)chroman-2-on (3) und (4R)-5,7-dihydroxy-4-(3-pyridyl)chroman-2-on (4)] |  |  |  |  |  |  | 34,1 % (p < 0,02) | 3,3 ± 1,8 | 13,7% (p < 0,35) | 3,1 ± 1,7 | 3,4 ± 1,8

Source: EP2725026A1, “Heterocyclic neoflavonoids with taste masking properties” (Symrise AG, priority 2012, dated 2014)
